How the values were obtained:
[1] = tested on: mustard beetle (Phaedon cochleariae); assay: Phaedon test (PHAECO spray treatment), Example 7; format: in vivo; conditions: application rate 20 g/ha, china cabbage leaf discs sprayed, after 7 days
Summary of the method: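 Spray formulation (acetone/DMF with alkylaryl polyglycol ether, diluted in emulsifier-containing water) applied to Chinese cabbage leaf discs, which were dried and then stocked with mustard beetle larvae. Efficacy scored at 7 days as % larvae killed (100% all, 0% none).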

[2] = logP by HPLC on reverse-phase column (EEC Directive 79/831 Annex V.A8); format: physicochemical; conditions: for chromatographic logP: reverse-phase C18 HPLC column
Description: The logP values reported in the above Tables and Preparation Examples were determined according to EEC Directive 79/831 Annex V.A8 by HPLC (High Performance Liquid Chromatography) on a reverse-phase column (C18). Temperature 43° C.

[3] = tested on: red spider mite (Tetranychus urticae); assay: Tetranychus test; OP-resistant (TETRUR spray treatment), Example 18; format: in vivo; conditions: common bean leaf discs sprayed, after 6 days; for pest or weed control at 100 g/ha: application rate 100 g/ha
Description: Tetranychus Test; OP-Resistant (TETRUR Spray Treatment)
• Solvent: 78.0 parts by weight of acetone • 1.5 parts by weight of dimethylformamide • Emulsifier: 0.5 part by weight of alkylaryl polyglycol ether
To prepare an appropriate active ingredient formulation, 1 part by weight of active ingredient is mixed with the stated amounts of solvent and emulsifier, and the concentrate is diluted with emulsifier-containing water to the desired concentration. Leaf discs from the common bean (Phaseolus vulgaris) infested by all stages of the red spider mite (Tetranychus urticae) are sprayed with an active ingredient formulation of the desired concentration.
After 6 days, the efficacy in % is determined. 100% means that all spider mites were killed; 0% means that no spider mites were killed.

Boophilus microplus [4] = assay: Boophilus microplus test (BOOPMI injection), Example 11; format: in vivo; conditions: application rate 20 μg/animal, injected into abdomen, after 7 days; for pest or weed control at 0.02 mg: Rhipicephalus microplus, 168 h, read-out: efficacy in % (fertile eggs laid)
Summary of the method: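 Adult ticks injected in the abdomen with compound diluted in DMSO, then held in a climate-controlled room. Efficacy in % determined after 7 days from fertile eggs laid; 100% means no tick laid fertile eggs.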

[5] = tested on: mustard beetle (Phaedon cochleariae); assay: Phaedon test (PHAECO spray treatment), Example 16; format: in vivo; conditions: china cabbage leaf discs sprayed, after the desired time; for pest or weed control at 500 g/ha / pest or weed control at 100 g/ha: Phaedon cochleariae, foliar, read-out: efficacy in %; for pest or weed control at 100 g/ha: application rate 100 g/ha
Summary of the method: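 Chinese cabbage leaf discs sprayed with acetone/DMF-emulsifier formulation of active ingredient diluted in emulsifier-containing water, then infested with mustard beetle larvae after drying. Efficacy scored as % larval kill (100% = all killed, 0% = none) after the chosen time.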

[6] = tested on: armyworm (Spodoptera frugiperda); assay: Spodoptera frugiperda test (SPODFR spray treatment), Example 15; format: in vivo; conditions: maize leaf discs sprayed, after 7 days
Summary of the method: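 Maize leaf discs sprayed with active ingredient in acetone/DMF with alkylaryl polyglycol ether emulsifier, diluted in water, then populated with caterpillars after drying. Efficacy in % after 7 days: 100% all caterpillars killed, 0% none.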

Ctenocephalides felis = Ctenocephalides felis oral (CTECFE), Example 12; format: in vivo; conditions: application rate 100 ppm in citrated cow's blood, after 2 days
Description: Ctenocephalides felis Oral ([…]) • Solvent: 1 part by weight of dimethyl sulphoxide For the purpose of preparing an appropriate active ingredient formulation, 10 mg of active ingredient are mixed with 0.5 ml of dimethyl sulphoxide. A portion of the concentrate is diluted with citrated cow's blood and the desired concentration is established. About 20 unfed adult fleas (Ctenocephalides felis) are placed into a chamber sealed at the top and bottom with gauze. A metal cylinder with its lower end sealed with Parafilm is placed onto the chamber. The cylinder contains the blood-active ingredient preparation, which can be consumed by the fleas through the Parafilm membrane. After 2 days, the kill rate in % is determined. 100% means that all fleas were killed; 0% means that no fleas were killed.

Boophilus microplus [7] = assay: Boophilus microplus test (BOOPMI injection), Example 1; format: in vivo; conditions: application rate 20 μg/animal, injected into abdomen, after 7 days
Summary of the method: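 Compound in DMSO, diluted with water, injected into the abdomen of engorged ticks, which were then held in a climate-controlled room. Efficacy was scored after 7 days from fertile egg laying, with 100% meaning no tick laid fertile eggs.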

[8] = tested on: green peach aphid (Myzus persicae); assay: Myzus test (MYZUPE spray treatment), Example 17; format: in vivo; conditions: application rate 100 g/ha, china cabbage leaf discs sprayed, after 6 days
Summary of the method: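 Chinese cabbage leaf discs infested with all aphid stages were sprayed with compound formulated in acetone/dimethylformamide plus alkylaryl polyglycol ether emulsifier, diluted in emulsifier-containing water. Mortality read after 6 days as % efficacy (100% all killed, 0% none killed).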

[9] = tested on: Boophilus microplus females of the SP-resistant Parkhurst strain; assay: Boophilus microplus test (DIP), Example 10; format: in vivo; conditions: application rate 100 ppm, after 7 days
Description: Boophilus microplus Test (DIP)
Test animals: adult engorged Boophilus microplus females of the SP-resistant Parkhurst strain • Solvent: dimethyl sulphoxide
10 mg of active ingredient are dissolved in 0.5 ml of dimethyl sulphoxide. For the purpose of preparing a suitable formulation, the active ingredient solution is diluted with water to the concentration desired in each case.
This active ingredient formulation is pipetted into tubes. 8-10 ticks are transferred into a further tube with holes. The tube is immersed into the active ingredient formulation, and all ticks are completely wetted. After the liquid has run out, the ticks are transferred onto filter discs in plastic dishes and stored in a climate-controlled room. The efficacy is assessed after 7 days by the number of fertile eggs laid. Eggs whose fertility is not outwardly visible are stored in glass tubes in a climate-controlled cabinet until the larvae hatch. Efficacy of 100% means that none of the ticks has laid any fertile eggs.

[10] = tested on: red spider mite (Tetranychus urticae); assay: Tetranychus test, OP-resistant (TETRUR spray treatment), Example 8; format: in vivo; conditions: application rate 20 g/ha, common bean leaf discs sprayed, after 6 days
Summary of the method: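 Bean (Phaseolus vulgaris) leaf discs carrying all stages of OP-resistant Tetranychus urticae sprayed with compound in acetone/DMF with emulsifier, diluted in water to the test concentration. Mortality scored after 6 days as % efficacy (100% = all mites killed).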

[11] = tested on: green peach aphid (Myzus persicae); assay: Myzus test (MYZUPE spray treatment), Example 5; format: in vivo; conditions: application rate 20 g/ha, china cabbage leaf discs sprayed, after 6 days
Description: Myzus Test (MYZUPE Spray Treatment)
• Solvent: 78 parts by weight of acetone • 1.5 parts by weight of dimethylformamide • Emulsifier: 0.5 part by weight of alkylaryl polyglycol ether
To prepare an active ingredient formulation, 1 part by weight of active ingredient is mixed with the stated amounts of solvent and emulsifier, and the concentrate is diluted with emulsifier-containing water to the desired concentration. Leaf discs from china cabbage (Brassica pekinensis) infested by all stages of the green peach aphid (Myzus persicae) are sprayed with an active ingredient formulation of the desired concentration.
After 6 days, the efficacy in % is determined. 100% means that all aphids were killed; 0% means that no aphids were killed.

Musca domestica adults = assay: Musca domestica test (MUSCDO), Example 14; format: in vivo; conditions: application rate 100 ppm, treated sponge, after 2 days
Summary of the method: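 Compound dissolved in DMSO and diluted in water to the test concentration, then applied to a sponge in vessels holding adult flies. Percent kill scored after 2 days (100% = all flies dead).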

[12] = pH 2.7, HPLC, C18 reverse phase, 43° C., acidic range pH 2.7, calibration with alkan-2-ones
[13] = Tetranychus urticae, foliar, 144 h, read-out: efficacy in %

O=C(NC(c1cccc(C(F)(F)F)c1)C(F)(F)F)c1cc2cc(C(=O)NC3CC3)c(Cl)cc2[nH]1 (stereo not shown) [Ic-24, 6-Chloro-N^5-cyclopropyl-N^2-{2,2,2-trifluoro-1-[3-(trifluoromethyl)phenyl]ethyl}-1H-indole-2,5-dicarboxamide]
efficacy in % [1]: 100%
chromatographic logP [2, 12]: 3.08
pest or weed control at 500 g/ha ([3]; Tetranychus urticae, foliar, 144 h, application rate 500 g/ha, read-out: efficacy in %): 100%
pest or weed control at 0.02 mg (Boophilus microplus [4]): 100%
pest or weed control at 500 g/ha ([5]; application rate 500 g/ha): 100%
pest or weed control at 500 g/ha ([6]; Spodoptera frugiperda, foliar, 168 h, application rate 500 g/ha, read-out: efficacy in %): 100%

Cn1cnc(CNC(=O)c2ccc(/C=C/C(=O)NC(c3cccc(C(F)(F)F)c3)C(F)(F)F)cc2C(F)(F)F)c1 (stereo not shown) [Ia-76]
efficacy in % [1]: 100%
logP ([2]; HPLC-MS): HPLC-MS: logP = 1.72; mass
efficacy in % (fertile eggs laid) (Boophilus microplus [4]): 100%
kill rate in % (efficacy) (Ctenocephalides felis): 80%
efficacy in % (fertile eggs laid) (Boophilus microplus [7]): 100%

O=C(/C=C/c1ccc(C(=O)NC2CSC2)c(C(F)(F)F)c1)NC(c1cccc(C(F)(F)F)c1)C(F)(F)F (stereo not shown) [Ia-130, 4-[(1E)-3-oxo-3-({2,2,2-trifluoro-1-[3-(trifluoromethyl)phenyl]ethyl}-amino)prop-1-en-1-yl]-N-(thietan-3-yl)-2-(trifluoromethyl)benzamide]
chromatographic logP ([2]; HPLC-MS): 3.62
pest or weed control at 100 g/ha [3, 13]: 80%
pest or weed control at 0.02 mg (Boophilus microplus [4]): 100%
pest or weed control at 100 g/ha [5]: 100%
efficacy in % [8]: 100%

O=C(/C=C/c1cccc(NC(=O)c2cccnc2Cl)c1)NC(c1cccc(C(F)(F)F)c1)C(F)(F)F (stereo not shown) [Ia-5, 2-Chloro-N-{3-[(1E)-3-oxo-3-({2,2,2-trifluoro-1-[3-(trifluoromethyl)phenyl]ethyl}amino)prop-1-en-1-yl]phenyl}nicotinamide]
chromatographic logP [2, 12]: 3.39
pest or weed control at 0.02 mg (Boophilus microplus [4]): 100%
kill rate in % (efficacy) (Ctenocephalides felis): 80%
pest or weed control at 500 g/ha ([5]; application rate 500 g/ha): 100%
efficacy in % (fertile eggs laid) (Boophilus microplus [7]): 100%

O=C(/C=C/c1cc(C(F)(F)F)c(C(=O)NC2CC2)cn1)NC(c1cccc(C(F)(F)F)c1)C(F)(F)F (stereo not shown) [If-2, N-Cyclopropyl-6-[(1E)-3-oxo-3-({2,2,2-trifluoro-1-[3-(trifluoromethyl)phenyl]ethyl}amino)-prop-1-en-1-yl]-4-(trifluoromethyl)nicotinamide]
chromatographic logP [2, 12]: 3.27
pest or weed control at 100 g/ha [3, 13]: 100%
pest or weed control at 100 g/ha [5]: 100%
efficacy in % [8]: 100%
pest or weed control at 100 g/ha ([6]; Spodoptera frugiperda, foliar, 168 h, application rate 100 g/ha, read-out: efficacy in %): 83%

O=C(/C=C/c1ccc(C(=O)NC(CF)CF)c(Cl)c1)NC(c1cccc(C(F)(F)F)c1)C(F)(F)F (stereo not shown) [Ia-155]
efficacy in % (fertile eggs laid) [9]: 90%
logP ([2]; HPLC-MS): HPLC-MS: logP = 3.36; mass
efficacy in % (fertile eggs laid) (Boophilus microplus [4]): 100%
efficacy in % [8]: 100%
efficacy in % ([6]; application rate 100 g/ha): 83%

Cc1cc(/C=C/C(=O)NC(c2cccc(C(F)(F)F)c2)C(F)(F)F)ccc1C(=O)NCC(F)F (stereo not shown) [Ia-100]
efficacy in % [1]: 100%
logP ([2]; HPLC-MS): HPLC-MS: logP = 3.13 mass
efficacy in % ([3]; application rate 500 g/ha): Ia-100%
efficacy in % ([5]; application rate 500 g/ha): Ia-100%
efficacy in % ([6]; application rate 500 g/ha): Ia-100%
efficacy in % [10]: 80%

CC(NC(=O)c1ccc(/C=C/C(=O)NC(c2cccc(C(F)(F)F)c2)C(F)(F)F)cc1Cl)C1CC1 (stereo not shown) [Ia-114]
efficacy in % [1]: 100%
efficacy in % (fertile eggs laid) [9]: 85%
logP ([2]; HPLC-MS): HPLC-MS: logP = 3.68 mass
efficacy in % (fertile eggs laid) (Boophilus microplus [4]): 100%
efficacy in % [10]: 100%

Cc1cc(/C=C/C(=O)NC(c2cccc(C(F)(F)F)c2)C(F)(F)F)ccc1C(=O)NCCC1CC1 (stereo not shown) [Ia-115]
efficacy in % [1]: 100%
logP ([2]; HPLC-MS): HPLC-MS: logP = 3.61 mass
efficacy in % [11]: 90%
efficacy in % [8]: 100%
efficacy in % [10]: 90%

Cc1cc(/C=C/C(=O)NC(c2cccc(C(F)(F)F)c2)C(F)(F)F)ccc1C(=O)NCC(F)(F)F (stereo not shown) [Ia-18]
kill rate in % (efficacy) (Musca domestica adults): 90%
logP ([2]; HPLC-MS): HPLC-MS: logP = 3.56; mass
efficacy in % (fertile eggs laid) (Boophilus microplus [4]): 100%
kill rate in % (efficacy) (Ctenocephalides felis): 98%

C#CC(C)(C)NC(=O)c1ccc(/C=C/C(=O)NC(c2cccc(C(F)(F)F)c2)C(F)(F)F)cc1C(F)(F)F (stereo not shown) [Ia-146]
logP ([2]; HPLC-MS): HPLC-MS: logP = 3.8; mass
efficacy in % (fertile eggs laid) (Boophilus microplus [4]): 100%
kill rate in % (efficacy) (Ctenocephalides felis): 90%
efficacy in % ([6]; application rate 100 g/ha): 100%

From US8889878B2, “Haloalky-substituted amides as insecticides and acaricides” (Bayer CropScience AG, priority 2009, dated 2014)
